According to patent US11629129B2, “Microbiocidal picolinamide derivatives” (SYNGENTA PARTICIPATIONS AG, priority 2018, dated 2023):

How the values were obtained:
[1] = system: Mycosphaerella graminicola (Septoria tritici); assay: Mycosphaerella graminicola (Septoria tritici)/Liquid Culture (Septoria Blotch); type: cell-based; details: Zymoseptoria tritici; 200 ppm in the formulation; liquid culture, growth inhibition photometrically 4 to 5 days after application; compared to untreated control; read-out: disease control
Procedure: Mycosphaerella graminicola (Septoria tritici)/Liquid Culture (Septoria Blotch) Conidia of the fungus from cryogenic storage are directly mixed into nutrient broth (PDB potato dextrose broth). After placing a (DMSO) solution of test compound into a microtiter plate (96-well format), the nutrient broth containing the fungal spores is added. The test plates are incubated at 24° C. and the inhibition of growth is determined photometrically 4 to 5 days after application.

[2] = system: Mycosphaerella arachidis (Cercospora arachidicola); assay: Mycosphaerella arachidis (Cercospora arachidicola)/Liquid Culture (Early Leaf Spot); type: cell-based; details: 200 ppm in the formulation, liquid culture, growth inhibition photometrically 4-5 days after application, compared to untreated control, read-out: disease control
Procedure: Mycosphaerella arachidis (Cercospora arachidicola)/Liquid Culture (Early Leaf Spot) Conidia of the fungus from cryogenic storage are directly mixed into nutrient broth (PDB potato dextrose broth). After placing a (DMSO) solution of test compound into a microtiter plate (96-well format), the nutrient broth containing the fungal spores is added. The test plates are incubated at 24° C. and the inhibition of growth is determined photometrically 4-5 days after application.

[3] = system: Monographella nivalis (Microdochium nivale); assay: Monographella nivalis (Microdochium nivale)/Liquid Culture (Foot Rot Cereals); type: cell-based; details: 200 ppm in the formulation, liquid culture, growth inhibition photometrically 4-5 days after application, compared to untreated control, read-out: disease control
Procedure: Monographella nivalis (Microdochium nivale)/Liquid Culture (Foot Rot Cereals) Conidia of the fungus from cryogenic storage are directly mixed into nutrient broth (PDB potato dextrose broth). After placing a (DMSO) solution of test compound into a microtiter plate (96-well format), the nutrient broth containing the fungal spores is added. The test plates are incubated at 24° C. and the inhibition of growth is determined photometrically 4-5 days after application.

[4] = system: Puccinia recondita f. sp. tritici; assay: Puccinia recondita f. sp. tritici/Wheat/Leaf Disc Preventative (Brown Rust); type: in vivo; details: foliar, 200 ppm in the formulation, wheat leaf segments cv. Kanzler, inoculated 1 day after application, assessed 7-9 days after application, compared to untreated, read-out: disease control
Procedure: Puccinia recondita f. sp. tritici/Wheat/Leaf Disc Preventative (Brown Rust) Wheat leaf segments cv. Kanzler are placed on agar in multiwell plates (24-well format) and sprayed with the formulated test compound diluted in water. The leaf disks are inoculated with a spore suspension of the fungus 1 day after application. The inoculated leaf segments are incubated at 19° C. and 75% rh under a light regime of 12 h light/12 h darkness in a climate cabinet and the activity of a compound is assessed as percent disease control compared to untreated when an appropriate level of disease damage appears in untreated check leaf segments (7-9 days after application).

[5] = system: Glomerella lagenarium (Colletotrichum lagenarium); assay: Glomerella lagenarium (Colletotrichum lagenarium)/Liquid Culture (Anthracnose); type: cell-based; details: Colletotrichum orbiculare; 200 ppm in the formulation; liquid culture, growth inhibition photometrically 3 to 4 days after application; compared to untreated control; read-out: disease control
Procedure: Glomerella lagenarium (Colletotrichum lagenarium)/Liquid Culture (Anthracnose) Conidia of the fungus from cryogenic storage are directly mixed into nutrient broth (PDB potato dextrose broth). After placing a (DMSO) solution of test compound into a microtiter plate (96-well format), the nutrient broth containing the fungal spores is added. The test plates are incubated at 24° C. and the inhibition of growth is measured photometrically 3 to 4 days after application.

[6] = system: Botryotinia fuckeliana (Botrvtis cinerea); assay: Botryotinia fuckeliana (Botrvtis cinerea)/Liquid Culture (Gray Mould); type: cell-based; details: Botrytis cinerea; 200 ppm in the formulation; liquid culture, growth inhibition photometrically 3-4 days after application; compared to untreated control; read-out: disease control
Procedure: Botryotinia fuckeliana (Botrvtis cinerea)/Liquid Culture (Gray Mould) Conidia of the fungus from cryogenic storage are directly mixed into nutrient broth (Vogels broth). After placing a (DMSO) solution of test compound into a microtiter plate (96-well format), the nutrient broth containing the fungal spores is added. The test plates are incubated at 24° C. and the inhibition of growth is determined photometrically 3-4 days after application.

COc1ccnc(C(=O)N[C@@H](C)C(=O)O[C@@H](C)c2ccc(Oc3ccc(Cl)cc3)cc2)c1O [I.av.001, [(1S)-1-[4-(4-chlorophenoxy)phenyl]ethyl] (2S)-2-[(3-hydroxy-4-methoxy-pyridine-2-carbonyl)amino] propanoate]
≥ 80%: inhibition of growth at 200 ppm [1] | inhibition of growth at 200 ppm [2] | inhibition of growth at 200 ppm [3] | pest or weed control at 200 ppm [4] | inhibition of growth at 200 ppm [5]

COc1ccnc(C(=O)N[C@@H](C)C(=O)O[C@@H](C)c2ccc(-c3cc(C)ccc3C)cc2)c1O [I.p.001, [(1S)-1-[4-(2,5-dimethylphenyl)phenyl]ethyl] (2S)-2-[(3-hydroxy-4-methoxy-pyridine-2-carbonyl)amino] propanoate]
≥ 80%: inhibition of growth at 200 ppm [1] | inhibition of growth at 200 ppm [2] | pest or weed control at 200 ppm [4] | inhibition of growth at 200 ppm [6] | inhibition of growth at 200 ppm [5]

COc1ccnc(C(=O)N[C@@H](C)C(=O)O[C@@H](C)c2ccc(-c3ccccc3C(C)C)cc2)c1O [I.j.001, [(1S)-1-[4-(2-isopropylphenyl)phenyl]ethyl] (2S)-2-[(3-hydroxy-4-methoxy-pyridine-2-carbonyl)amino] propanoate]
≥ 80%: inhibition of growth at 200 ppm [1] | inhibition of growth at 200 ppm [2] | inhibition of growth at 200 ppm [3] | pest or weed control at 200 ppm [4] | inhibition of growth at 200 ppm [5]

COc1ccnc(C(=O)N[C@@H](C)C(=O)O[C@@H](C)c2cccc(-c3ccccc3)c2)c1O [I.a.001, [(1S)-1-(3-phenylphenyl)ethyl] (2S)-2-[(3-hydroxy-4-methoxy-pyridine-2-carbonyl)amino] propanoate]
≥ 80%: inhibition of growth at 200 ppm [1] | inhibition of growth at 200 ppm [2] | inhibition of growth at 200 ppm [3] | inhibition of growth at 200 ppm [6] | inhibition of growth at 200 ppm [5]

COc1ccnc(C(=O)N[C@@H](C)C(=O)O[C@@H](C)c2cccc(-c3ccccc3Cl)c2)c1O [I.b.001, [(1S)-1-[3-(2-chlorophenyl)phenyl]ethyl] (2S)-2-[(3-hydroxy-4-methoxy-pyridine-2-carbonyl)amino] propanoate]
≥ 80%: inhibition of growth at 200 ppm [1] | inhibition of growth at 200 ppm [2] | inhibition of growth at 200 ppm [3] | pest or weed control at 200 ppm [4] | inhibition of growth at 200 ppm [6]

COc1ccnc(C(=O)N[C@@H](C)C(=O)O[C@@H](C)c2ccc(Oc3ccccc3)cc2)c1O [I.at.001, [(1S)-1-(4-phenoxyphenyl)ethyl] (2S)-2-[(3-hydroxy-4-methoxy-pyridine-2-carbonyl)amino] propanoate]
≥ 80%: inhibition of growth at 200 ppm [1] | inhibition of growth at 200 ppm [2] | inhibition of growth at 200 ppm [3] | pest or weed control at 200 ppm [4] | inhibition of growth at 200 ppm [5]

COc1ccnc(C(=O)N[C@@H](C)C(=O)O[C@@H](C)c2ccc(-c3cccc4ccccc34)cc2)c1O [I.z.001, [(1S)-1-[4-(1-naphthyl)phenyl]ethyl] (2S)-2-[(3-hydroxy-4-methoxy-pyridine-2-carbonyl)amino] propanoate]
≥ 80%: inhibition of growth at 200 ppm [1] | inhibition of growth at 200 ppm [2] | pest or weed control at 200 ppm [4] | inhibition of growth at 200 ppm [6] | inhibition of growth at 200 ppm [5]

COc1ccnc(C(=O)N[C@@H](C)C(=O)O[C@@H](C)c2cccc(Oc3cccc(Cl)c3)c2)c1O [I.ar.001, [(1S)-1-[3-(3-chlorophenoxy)phenyl]ethyl] (2S)-2-[(3-hydroxy-4-methoxy-pyridine-2-carbonyl)amino] propanoate]
≥ 80%: inhibition of growth at 200 ppm [1] | inhibition of growth at 200 ppm [2] | pest or weed control at 200 ppm [4] | inhibition of growth at 200 ppm [5]

COc1ccnc(C(=O)N[C@@H](C)C(=O)O[C@@H](C)c2ccc(-c3ccc(Cl)c(C)c3)cc2)c1O [I.y.001, [(1S)-1-[4-(4-chloro-3-methyl-phenyl)phenyl]ethyl] (2S)-2-[(3-hydroxy-4-methoxy-pyridine-2-carbonyl)amino] propanoate]
≥ 80%: inhibition of growth at 200 ppm [1] | inhibition of growth at 200 ppm [2] | pest or weed control at 200 ppm [4] | inhibition of growth at 200 ppm [5]

COc1ccnc(C(=O)N[C@@H](C)C(=O)O[C@@H](C)c2ccc(-c3cscc3C)cc2)c1O [I.bb.001, [(1S)-1-[4-(4-methyl-3-thienyl)phneyl]ethyl] (2S)-2-[(3-hydroxy-4-methoxy-pyridine-2-carbonyl)amino] propanoate]
≥ 80%: inhibition of growth at 200 ppm [1] | inhibition of growth at 200 ppm [2] | inhibition of growth at 200 ppm [3] | pest or weed control at 200 ppm [4] | inhibition of growth at 200 ppm [5]

COc1ccnc(C(=O)N[C@@H](C)C(=O)O[C@@H](C)c2ccc(Oc3cccc(Cl)c3)cc2)c1O [I.au.001, [(1S)-1-[4-(3-chlorophenoxy)phenyl]ethyl] (2S)-2-[(3-hydroxy-4-methoxy-pyridine-2-carbonyl)amino] propanoate]
≥ 80%: inhibition of growth at 200 ppm [1] | inhibition of growth at 200 ppm [2] | inhibition of growth at 200 ppm [3] | pest or weed control at 200 ppm [4] | inhibition of growth at 200 ppm [5]

COc1ccnc(C(=O)N[C@@H](C)C(=O)O[C@@H](C)c2ccc(-c3cncc(Cl)c3)cc2)c1O [I.ah.001, [(1S)-1-[4-(5-chloro-3-pyridyl)phenyl]ethyl] (2S)-2-[(3-hydroxy-4-methoxy-pyridine-2-carbonyl)amino] propanoate]
≥ 80%: inhibition of growth at 200 ppm [1] | inhibition of growth at 200 ppm [2] | inhibition of growth at 200 ppm [3] | pest or weed control at 200 ppm [4] | inhibition of growth at 200 ppm [5]

COc1ccnc(C(=O)N[C@@H](C)C(=O)O[C@@H](C)c2ccc(-c3ccc(C(F)(F)F)nc3)cc2)c1O [I.af.001, [(1S)-1-[4-[6-(trifluoromethyl)-3-pyridyl]phenyl]ethyl] (2S)-2-[(3-hydroxy-4-methoxy-pyridine-2-carbonyl)amino] propanoate]
≥ 80%: inhibition of growth at 200 ppm [1] | inhibition of growth at 200 ppm [2] | inhibition of growth at 200 ppm [3] | pest or weed control at 200 ppm [4] | inhibition of growth at 200 ppm [5]

COc1ccnc(C(=O)N[C@@H](C)C(=O)O[C@@H](C)c2cccc(Oc3ccc(Cl)cc3)c2)c1O [I.as.001, [(1S)-1-[3-(4-chlorophenoxy)phenyl]ethyl] (2S)-2-[(3-hydroxy-4-methoxy-pyridine-2-carbonyl)amino] propanoate]
≥ 80%: inhibition of growth at 200 ppm [1] | inhibition of growth at 200 ppm [2] | pest or weed control at 200 ppm [4] | inhibition of growth at 200 ppm [6] | inhibition of growth at 200 ppm [5]
